The source of these data is patent US20070054859A1, “Estrogen receptor-related receptor alpha (ERRalpha) and cartilage formation” (priority 2001, published 2007).

Experiment [1] has as its target T1, ERRα (Homo sapiens, UniProt P11474).
T1 sequence (P11474 1-423): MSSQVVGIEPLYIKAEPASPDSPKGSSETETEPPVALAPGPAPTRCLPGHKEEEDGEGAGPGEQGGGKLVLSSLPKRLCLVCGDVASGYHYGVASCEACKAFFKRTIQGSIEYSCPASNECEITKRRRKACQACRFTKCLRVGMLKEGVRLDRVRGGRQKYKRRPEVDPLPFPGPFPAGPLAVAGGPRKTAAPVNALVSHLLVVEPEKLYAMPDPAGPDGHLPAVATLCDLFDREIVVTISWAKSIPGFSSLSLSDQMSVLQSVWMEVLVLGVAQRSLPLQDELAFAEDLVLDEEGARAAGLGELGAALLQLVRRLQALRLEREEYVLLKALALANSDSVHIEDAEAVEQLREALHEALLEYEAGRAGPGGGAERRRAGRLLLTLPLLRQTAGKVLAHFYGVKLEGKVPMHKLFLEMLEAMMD
The note with it: Yang et al. (1999); Tremblay et al. (2001a); cited from earlier work.

The next experiment deals with ERRα mRNA. Description: ERRα mRNA levels in C5.18 cultures by semi-quantitative RT-PCR, normalised against L32. It counts as cell-based, rat. The note with it: C5.18 cultures without FBS, 10^−9M E2 versus 0.01% ethanol vehicle, day 2; FIG. 8 Panel B. On the procedure: Semi-quantitative RT-PCR was carried out as described in Bonnelye et al. (2001), over the proliferation/differentiation time course of C5.18 cultures treated with Dex. Days 3 and 6 were within the proliferation phase and days 11, 15 and 21 were within the differentiation stage. ERRα expression was normalised against that of the ribosomal probe L32. For comparison, mRNA levels for three chondroblast markers, type II collagen, aggrecan and link protein, were also assessed, normalised against L32.
C5.18 cells were grown in medium with (+) and without (−) fetal bovine serum (FBS). ERRα mRNA levels were determined by semi-quantitative RT-PCR and normalised against ribosomal probe L32.
Similar C5.18 cultures were grown without FBS but in the presence of estrogen (10^−9M E2) or vehicle (0.01% ethanol) (VEH) and mRNA levels were determined as above.

For experiment [2], the target named is T1, ERRα. The note with it: cited from earlier work.

As for `ClC1=C(Cl)C2(Cl)C3C(Cl)C(Cl)CC3C1(Cl)C2(Cl)Cl` (stereo not drawn) [chlordane], on ERRα [1], the ERRα antagonist activity result is “antagonise ERRα activity”.

Regarding estrogen, the “ERRα mRNA levels” value with ERRα mRNA is on record as “significantly increased”. Further, at ERRα [2], the “binding to ERRα” value is recorded as “does not bind”.
